Laboratory results as given in ChEMBL document CHEMBL1151936, “Using peptidyl aldehydes in activity-based proteomics” (Bioorg Med Chem Lett, 2009).
Active and inactive are the calls of the source. The rule behind the calls is not given here.

target: T1, Prolyl endopeptidase (Homo sapiens) (UniProt P48147); test: Displacement of fluorophosphonate rhodamine from human cloned prolyl oligopeptidase expressed in Escherichia coli at 5 to 100 uM by SDS-PAGE
T1 sequence (whole entry): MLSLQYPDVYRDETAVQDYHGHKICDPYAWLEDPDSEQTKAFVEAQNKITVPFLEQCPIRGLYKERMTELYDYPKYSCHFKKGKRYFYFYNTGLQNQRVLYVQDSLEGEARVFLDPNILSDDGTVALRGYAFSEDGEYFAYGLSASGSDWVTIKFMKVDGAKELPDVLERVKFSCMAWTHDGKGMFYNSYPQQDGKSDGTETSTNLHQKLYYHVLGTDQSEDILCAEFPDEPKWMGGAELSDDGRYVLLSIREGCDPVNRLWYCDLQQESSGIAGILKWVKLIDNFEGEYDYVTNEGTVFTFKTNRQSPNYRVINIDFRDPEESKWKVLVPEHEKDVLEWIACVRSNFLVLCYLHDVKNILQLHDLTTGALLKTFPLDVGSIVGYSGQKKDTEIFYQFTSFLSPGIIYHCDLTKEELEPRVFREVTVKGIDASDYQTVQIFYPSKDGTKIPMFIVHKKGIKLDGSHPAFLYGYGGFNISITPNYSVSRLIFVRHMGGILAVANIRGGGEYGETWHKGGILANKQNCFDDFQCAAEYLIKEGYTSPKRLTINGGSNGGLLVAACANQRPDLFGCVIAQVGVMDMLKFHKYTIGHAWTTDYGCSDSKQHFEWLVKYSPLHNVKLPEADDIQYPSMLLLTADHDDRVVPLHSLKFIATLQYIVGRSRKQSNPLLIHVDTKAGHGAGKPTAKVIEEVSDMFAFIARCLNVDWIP

Activity, active:
C#CCCCC(=O)N[C@@H](Cc1ccc(C(=O)c2ccccc2)cc1)C(=O)NCCCCCC(=O)N1CCC[C@H]1C(=O)N1CCC[C@H]1C=O
C#CCCCC(=O)N[C@@H](Cc1ccc(C(=O)c2ccccc2)cc1)C(=O)NCCOCCOCCOCCOCC(=O)N1CCC[C@H]1C(=O)N1CCC[C@H]1C=O
C#CCCCC(=O)N[C@@H](Cc1ccc(C(=O)c2ccccc2)cc1)C(=O)N1CCC[C@H]1C(=O)N1CCC[C@H]1C=O
